We go through 9 compounds from patent US20100261699A1, “N-PYRAZOLE-2-PYRIDINE CARBOXAMIDE DERIVATIVE” (Banyu Pharmaceutical Co., Ltd., priority 2007, published 2010).

The assay addresses T1, recombinant human liver GK (Homo sapiens, UniProt P35557).
T1 construct: made in house; host or cells: E. coli
T1 sequence (P35557 1-466 isoform P35557-2): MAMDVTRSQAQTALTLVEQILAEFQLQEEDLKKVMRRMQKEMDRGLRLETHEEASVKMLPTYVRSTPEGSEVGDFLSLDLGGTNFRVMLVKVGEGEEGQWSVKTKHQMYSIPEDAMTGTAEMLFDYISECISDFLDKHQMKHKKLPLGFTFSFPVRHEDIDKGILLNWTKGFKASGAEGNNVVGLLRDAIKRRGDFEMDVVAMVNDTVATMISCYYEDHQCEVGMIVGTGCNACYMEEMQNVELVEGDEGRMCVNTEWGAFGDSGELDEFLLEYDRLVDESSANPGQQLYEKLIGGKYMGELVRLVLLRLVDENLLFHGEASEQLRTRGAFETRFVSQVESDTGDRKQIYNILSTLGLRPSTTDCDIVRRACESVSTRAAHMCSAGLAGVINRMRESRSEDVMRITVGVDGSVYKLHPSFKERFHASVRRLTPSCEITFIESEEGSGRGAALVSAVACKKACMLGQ
The assay can be described thus: Glucokinase-activating effect (Thio-NADH production via G6PDH-coupled assay). Type of assay: biochemical. Particulars: final glucose concentration 2.5 mM, 30° C.; for Emax: OD level of DMSO control taken as 100%. The protocol:
The excellent glucokinase-activating effect of the compound represented by the Formula (I) can be determined by a method described in references (e.g., Diabetes, Vol. 45, pp. 1671-1677, 1996, etc.) or by a method based on the same.
The glucokinase activity is determined not by directly measuring glucose-6-phosphate, but by measuring the level of Thio-NADH produced when a reporter enzyme, glucose-6-phosphate dehydrogenase, produces phosphogluconolactone from glucose-6-phosphate.
A recombinant human liver GK used in this assay was expressed in E. coli as a FLAG fusion protein, and then purified by ANTIFLAG M2 AFFIMTY GEL (Sigma).
The assay was carried out using a flat-bottom 96-well plate at 30° C. First, 69 μl of assay buffer (25 mM Hepes Buffer:pH=7.2, 2 mM MgCl2, 1 mM ATP, 0.5 mM TNAD, 1 mM dithiothreitol) was dispensed, and 1 μl of DMSO solution of the compound or DMSO as a control was added thereto. Subsequently, 20 μl of enzyme mixture (FLAG-GK, 20 U/ml G6PDH) that had been cooled in ice was dispensed, and 10 μl of 25 mM glucose, a substrate, was added thereto to initiate reaction (final glucose concentration=2.5 mM).
After the start of the reaction, an increase in the absorbance at 405 nm was measured for 12 minutes at 30 second intervals, and the increment for the first 5 minutes was used for evaluation of the compound. FLAG-GK was added so that the increment of absorbance in 5 minutes in the presence of 1% DMSO was from 0.04 to 0.06.
Taking the OD level of the DMSO control as 100%, the OD level of the test compound at different concentrations was determined From the OD level at each concentration, Emax (%) and EC50 (μM) were calculated and used as an index of the GK-activating ability of the compound.

As usually defined, the EC50 is the midpoint of the concentration-response curve. The Emax is the size of the effect at its maximum, as opposed to the concentration needed.

Molecules are shown by their SMILES.

With `CCN(CC)CCOc1ccc(Sc2ccc(Sc3nncn3C)nc2C(=O)Nc2ccn(C)n2)cc1` [Example 2], the EC50 was determined as 200 nM.

In the case of `CC(C)N1CC(COc2ccc(Sc3ccc(Sc4nncn4C)nc3C(=O)Nc3ccn(C)n3)cc2)C1` [Example 8, 3-({4-[(1-isopropylazetidin-3-yl)methoxy]phenyl}thio)-N-(1-methyl-1H-pyrazol-3-yl)-6-[(4-methyl-4H-1,2,4-triazol-3-yl)thio]pyridine-2-carboxamide], the Emax came to 960% and the EC50 turned out to be 80 nM.

Turning to `CCN1CC(COc2ccc(Sc3ccc(Sc4nncn4C)nc3C(=O)Nc3ccn(C)n3)cc2)C1` [Example 7, 3-({4-[(1-ethylazetidin-3-yl)methoxy]phenyl}thio)-N-(1-methyl-1H-pyrazol-3-yl)-6-[(4-methyl-4H-1,2,4-triazol-3-yl)thio]pyridine-2-carboxamide], the Emax came out at 930% and the EC50 was found to be 60 nM. `CC(C)N1CC(Oc2ccc(Sc3ccc(Sc4nncn4C)nc3C(=O)Nc3ccn(C)n3)cc2)C1` [Example 6]: the EC50 was determined as 150 nM. Regarding `Cn1ccc(NC(=O)c2nc(Sc3nncn3C)ccc2Sc2ccc(OCCN3CCCC3)cc2)n1` [Example 3], the EC50 worked out at 80 nM.

`CCN1CC(Oc2ccc(Sc3ccc(Sc4nncn4C)nc3C(=O)Nc3ccn(C)n3)cc2)C1` [Example 5]: the EC50 came to 120 nM.

Take `CN(C)CCOc1ccc(Sc2ccc(Sc3nncn3C)nc2C(=O)Nc2ccn(C)n2)cn1` [Example 9]: the Emax is 880% and the EC50 amounted to 180 nM. For the compound `CN1CC(Oc2ccc(Sc3ccc(Sc4nncn4C)nc3C(=O)Nc3ccn(C)n3)cc2)C1` [Example 4, 3-({4-[(1-methylazetidin-3-yl)oxy]phenyl}thio)-N-(1-methyl-1H-pyrazol-3-yl)-6-[(4-methyl-4H-1,2,4-triazol-3-yl)thio]pyridine-2-carboxamide], the EC50 came to 70 nM. Take `CN(C)CCOc1ccc(Sc2ccc(Sc3nncn3C)nc2C(=O)Nc2ccn(C)n2)cc1` [Example 1, 3-({4-[2-(dimethylamino)ethoxy]phenyl}thio)-N-(1-methyl-1H-pyrazol-3-yl)-6-[(4-methyl-4H-1,2,4-triazol-3-yl)thio]pyridine-2-carboxamide]: the Emax is 890% and the EC50 is 120 nM.
